The nature of test [1]: Inhibition of alpha-glucosidase (unknown origin). The arrangement: species or system Homo sapiens.
In test [2] the target is T1, Tyrosine-protein phosphatase non-receptor type 1 (Homo sapiens, UniProt P18031).
T1 sequence (P18031 whole entry): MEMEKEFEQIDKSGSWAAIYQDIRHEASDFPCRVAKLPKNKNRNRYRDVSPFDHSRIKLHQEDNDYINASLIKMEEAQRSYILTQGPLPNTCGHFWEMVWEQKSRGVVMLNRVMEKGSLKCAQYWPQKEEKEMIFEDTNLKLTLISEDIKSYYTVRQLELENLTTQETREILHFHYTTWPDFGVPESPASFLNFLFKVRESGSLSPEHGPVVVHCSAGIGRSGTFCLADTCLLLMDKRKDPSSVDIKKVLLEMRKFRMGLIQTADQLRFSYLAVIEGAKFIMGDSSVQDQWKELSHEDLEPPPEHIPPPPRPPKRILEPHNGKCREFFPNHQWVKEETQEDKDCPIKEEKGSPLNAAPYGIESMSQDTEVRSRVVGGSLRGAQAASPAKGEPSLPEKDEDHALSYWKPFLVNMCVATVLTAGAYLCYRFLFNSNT
Put plainly: Inhibition of PTP1B (unknown origin).

The target in another test is Dipeptidyl peptidase 4 (Homo sapiens, UniProt P27487).
Sequence of Dipeptidyl peptidase 4 (P27487 whole entry): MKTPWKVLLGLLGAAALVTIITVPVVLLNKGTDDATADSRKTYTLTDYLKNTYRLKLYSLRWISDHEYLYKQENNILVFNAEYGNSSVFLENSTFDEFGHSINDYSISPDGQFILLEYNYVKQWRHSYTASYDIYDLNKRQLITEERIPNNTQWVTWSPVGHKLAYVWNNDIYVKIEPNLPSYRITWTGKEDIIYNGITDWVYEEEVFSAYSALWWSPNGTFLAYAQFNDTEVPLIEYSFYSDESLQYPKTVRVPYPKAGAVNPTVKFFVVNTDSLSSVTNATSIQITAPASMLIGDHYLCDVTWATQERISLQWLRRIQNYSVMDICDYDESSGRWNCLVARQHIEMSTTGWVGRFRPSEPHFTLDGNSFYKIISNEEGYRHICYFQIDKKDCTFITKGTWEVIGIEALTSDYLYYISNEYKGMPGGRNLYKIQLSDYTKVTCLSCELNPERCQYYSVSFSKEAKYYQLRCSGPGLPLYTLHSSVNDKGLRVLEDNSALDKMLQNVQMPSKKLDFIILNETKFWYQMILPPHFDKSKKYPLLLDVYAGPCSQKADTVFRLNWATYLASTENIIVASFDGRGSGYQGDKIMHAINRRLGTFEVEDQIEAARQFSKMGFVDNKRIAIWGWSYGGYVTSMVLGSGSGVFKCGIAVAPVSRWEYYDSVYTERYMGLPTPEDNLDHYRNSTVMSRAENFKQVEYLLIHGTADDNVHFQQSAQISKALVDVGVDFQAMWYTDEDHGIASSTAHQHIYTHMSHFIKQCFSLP

Molecules are shown by their SMILES.

Results on 30 compounds are retold here after ChEMBL document CHEMBL4622831, “Anti-diabetic drugs recent approaches and advancements” (Bioorg Med Chem, 2020).

In general, IC50 refers to the concentration needed to halve the response being measured. Low readings indicate inhibition by little substance, high ones a need for much substance. As a reminder, the EC50 is the midpoint of the concentration-response curve.

Description for Dipeptidyl peptidase 4: Inhibition of DPP4 (unknown origin)

For the compound `O=C(C[C@@H](c1cccs1)c1c[nH]c2ccccc12)c1ccc2ccccc2c1`, the IC50 in test [1] was determined as 11.8 µM.

The compound `O=C1/C(=C/c2ccc(-c3ccccc3)cc2)NC(=S)C1c1ccccc1` (stereo not given) had an IC50 in test [2] of 2.9 µM.

As for `O=C(Cn1cc(Cn2c3ccccc3c3ccccc32)nn1)c1ccc(O)c(Br)c1`, the IC50 in test [1] came to 1 µM. In other words, the single-digit micromolar range.

Turning to `CC#CC(CC(=O)O)c1ccc(OCc2cccc(CN3CCC4N=C(C5CC5)OC4C3)c2)cc1` (stereo not given), a half-maximal response on Dipeptidyl peptidase 4 (EC50) required 0.0012 µM.

As for `COc1cc(CC2SC(=O)NC2=O)ccc1OS(=O)(=O)c1ccccc1` (stereo not given), the IC50 in test [2] turned out to be 8.73 µM.

`O=C(CSc1nc2cc(Cl)ccc2s1)Nc1cccc(-c2nnn[nH]2)c1` gave an IC50 in test [2] of 1.88 µM. Against the preceding compound, the IC50 is about 4.6-fold lower.

In test [1], `COc1cc(-n2cc(CCC(=O)N[C@@H]3C[C@H](CO)[C@@H](O)[C@H](O)[C@H]3O)nn2)cc(OC)c1OC` yielded an IC50 of 121 µM.

`O=c1c2ccccc2nc(SCc2cn(Cc3ccc(Br)cc3)nn2)n1CCc1ccccc1` came in with an IC50 in test [1] of 181 µM. This IC50 and that of the compound before are within 1.5-fold of each other.

In turn, `CC(C)(C)OC(=O)N[C@@H](Cc1ccc(OCc2ccc(-c3ccccc3C#N)cc2)cc1)C(=O)O` came in with a half-maximal inhibitory concentration (IC50) in test [2] of 44 µM.

Take `Cc1ccc(C(c2c[nH]c3ccc(C(=O)NNS(=O)(=O)c4cc(Cl)c(Cl)cc4Cl)cc23)c2c[nH]c3ccc(C(=O)NNS(=O)(=O)c4cc(Cl)c(Cl)cc4Cl)cc23)cc1`: the IC50 in test [1] stood at 0.1 µM.

As for `CC(C)(C)OC(=O)N[C@@H](Cc1ccc(OCc2nc3ccccc3[nH]2)cc1)C(=O)O`, inhibition in test [2] was half-maximal at 43.6 µM (IC50).

In the case of `COc1cc(CC2SC(=O)NC2=O)ccc1OS(C)(=O)=O` (stereo not given), in test [2], the half-inhibitory concentration (IC50) worked out at 7.31 µM.

For the compound `N[C@@H]1CN(c2ncc(Oc3c[nH]nc3C3=CCC(F)(F)CC3)cn2)C[C@@H]1c1cc(F)c(F)cc1F`, the IC50 at Dipeptidyl peptidase 4 came out at 0.006 µM. That is a single-digit nanomolar value.

On to `O=[N+]([O-])c1cccc(/C=N/N2C(c3ccccc3)=Nc3ccc(I)cc3C2NC2NC=CS2)c1` (stereo not given), for which half-maximal inhibition on Dipeptidyl peptidase 4 (IC50) required 0.00076 µM.

In the case of `O=c1oc2ccc(Br)cc2cc1-c1nn(-c2ccccc2)cc1-c1nc(-c2ccccc2)c(-c2ccccc2)n1-c1ccc(Cl)cc1`, in test [1], the IC50 turned out to be 2.53 µM. In other words, the single-digit micromolar range.

For the compound `O=C1Nc2ccccc2C1(c1cn(Cc2ccccc2F)c2ccccc12)c1cn(Cc2ccccc2F)c2ccccc12`, the IC50 in test [1] stood at 5.98 µM.

Compound `CCn1c(O)c(C(c2ccc(Cl)cc2Cl)c2c(O)n(CC)c(=S)n(CC)c2=O)c(=O)n(CC)c1=S` came in with an IC50 in test [1] of 19.4 µM. Against the preceding compound, the IC50 is about 3.2-fold higher.

In test [1], `COc1ccc(-c2ccc(O[C@H](C)Cn3cc(-c4ccc(C(F)(F)F)cc4)nn3)c(OC)c2)cc1` gave an IC50 of 14.2 µM.

The compound `CCOC(=O)c1c(C(C)C)cc(C(C)C)c(C(=O)OCC)c1-c1cc2ccc(-c3ccc4c(C)cccc4c3)cc2[nH]1` showed an IC50 on Dipeptidyl peptidase 4 of 0.00272 µM.

In turn, `Cc1cccc(NC(=O)CSc2nnc(CCCc3c[nH]c4ccccc34)o2)c1` gave a concentration for half-maximal inhibition (IC50) in test [1] of 9.37 µM.

`Cc1nn(-c2ccc(Nc3cccc(Cl)c3)nn2)c(C)c1[N+](=O)[O-]`: the IC50 in test [1] came to 19.3 µM.

With `Cc1cccc(NC(=O)CSc2nnc(CCCc3c[nH]c4ccccc34)o2)c1C`, the midpoint of inhibition in test [1], the IC50, lay at 9.46 µM.

`COc1ccc(-c2csc(NC(=O)CSc3nnc(-c4ccc(Br)cc4)c(-c4ccc(Br)cc4)n3)n2)cc1` returned an IC50 in test [1] of 2.85 µM.

`O=c1oc2ccccc2cc1-c1nn(C(Nc2ccc(Oc3ccc(NC(c4cccc(Br)c4)n4nc(-c5cc6ccccc6oc5=O)oc4=S)cc3)cc2)c2cccc(Br)c2)c(=S)o1` (stereo not given): in test [1], the IC50 was 0.07 µM.

`O=C(Cn1cc(CSc2nnc(-c3ccccc3)c(-c3ccccc3)n2)nn1)Nc1cc(Cl)ccc1Cl`: it took 11.6 µM to reach half-maximal inhibition in test [1] (IC50).

Compound `N#C[C@@H]1CCCN1C(=O)[C@@H](N)Cc1ccc(-c2cn(C3CC3)nn2)cc1` gave an IC50 against Dipeptidyl peptidase 4 of 0.247 µM. This counts as sub-micromolar.

In turn, `CC1=NN(c2ccc([N+](=O)[O-])cc2)C(=O)/C1=C/c1cn(-c2ccccc2)nc1-c1cc2cc(Br)ccc2oc1=O` returned an IC50 in test [1] of 2.1 µM.

On Dipeptidyl peptidase 4, `CC#CCn1c(N2CCC[C@H](N)C2)cc(=O)n(Cc2nc(C)c3cc(C)ccc3n2)c1=O` gave an IC50 of 0.00578 µM.

Turning to `COc1ccc(CCn2c(SCc3cn(Cc4ccc(Br)cc4)nn3)nc3ccccc3c2=O)cc1OC`, in test [1], the IC50 was found to be 192 µM.

The compound `c1cncc(Cn2cc(Cn3c4ccccc4c4ccccc43)nn2)c1` displayed an IC50 in test [1] of 0.8 µM.
